Laboratory results as given in patent US20220401440A1, “DOSING REGIMENS FOR A PROTEIN KINASE C INHIBITOR” (IDEAYA BIOSCIENCES, INC., priority 2019, published 2022).
Several values for one entry are separate records, joined by “and”; a condition that tells them apart may be missing. Identical values can stand only once. Like-named read-outs stand apart in the source and are kept apart here.

Tests used:
[1] = Phase 1/2 study: plasma pharmacokinetics of Compound (I) in patients (LC-MS/MS, non-compartmental analysis); type: in vivo, human
Description: The following example presents a phase 1/2 study of Compound (I) in patients with solid tumors harboring GNAQ/11 mutations or PRKC fusions.
Patients with MUM were sequentially enrolled into Cohort 1 or Cohort 2. Enrollment into Cohort 2 was not initiated until enrollment into Cohort 1 was completed and the dose considered safe. • a. Cohort 1. 6 patients were sequentially enrolled and received 300 mg twice a day (BID), daily, for 28-day treatment cycles. • b. Cohort 2. 6 patients were sequentially enrolled and received 400 mg BID, preceded by an initial 7-day 200 mg BID run-in period, for 28-day treatment cycles. All patients continue to receive treatment with Compound (I) unless the subject experiences one or more of the following: • Adverse event • Lost to follow-up • Physician decision • Progressive disease • Study termination by the Sponsor • Patient/guardian decision • Protocol deviation • Non-compliance with protocol • Death • Pregnancy NUMBER OF SUBJECTS: 12 patients
The following example presents pharmacokinetic results from the study as described in Example 1.
Blood samples were collected on Cycle 1 Day 1 and Day 15 from patients who were administered 300 mg BID of Compound (I), and on Cycle 1 Day 8 and Day 22 from patients who were administered 200 mg BID for 7 days followed by 400 mg BID of Compound (I) for the remainder of the treatment cycle. The plasma samples were processed by protein precipitation (see Ahuja S and Dong M. W, Handbook of Pharmaceutical Analysis by HPLC, Elsevier Inc., Chapter 17, page 433, 2005) and analyzed using an LC-MS/MS method; Quantification was achieved using Compound (I) peak area to internal standard (3-amino-N-(3-(4-amino-4-(methyl-d3)piperidin-1-yl)pyridin-2-yl)-6-(3-(trifluoromethyl)pyridin-2-yl)pyrazine-2-carboxamide) peak area ratios. Concentrations of the calibration curve standards, quality control samples, and patient samples were determined by the method of 1/x^2 weighted least squares linear regression.
The Pharmacokinetic parameters were calculated using Phoenix WinNonlin software (non-compartmental analysis).

[2] = cited from earlier work; for Dose limiting toxicities (DLTs): evaluable patients
[3] = system: metastatic uveal melanoma (MUM); conditions: cited from earlier work
[4] = Hypotension studies: adverse events, single-agent Compound (I), 300 mg BID vs 400 mg BID with 7-day 200 mg run-in (Tables 6, 7); type: in vivo
Description: Patients with MUM were sequentially enrolled into Cohort 1 or Cohort 2. Enrollment into Cohort 2 was not initiated until enrollment into Cohort 1 was completed and the dose considered safe. • a. Cohort 1. […] Cohort 2. […] All patients continue to receive treatment with Compound (I) unless the subject experiences one or more of the following: • Adverse event • Lost to follow-up • Physician decision • Progressive disease • Study termination by the Sponsor • Patient/guardian decision • Protocol […]

[5] = Hypotension studies: adverse events, single agent Compound (I) BID schedule (Table 5); type: in vivo, human
[6] = cohort that received BID dosing of 200 to 400 mg
[7] = 300 mg BID, N = 26, regardless of study drug relationship
[8] = 400 mg BID with 7-day 200 mg run-in, N = 30
[9] = 400 mg BID with 7-day 200 mg run-in, N = 30, regardless of study drug relationship
[10] = All Patients, N = 56, regardless of study drug relationship
[11] = 300 mg BID, N = 18, regardless of study drug relationship
[12] = 400 mg, N = 6, regardless of study drug relationship
[13] = All BID Patients, N = 30, regardless of study drug relationship

SMILES: CC1(N)CCN(c2cccnc2NC(=O)c2nc(-c3ncccc3C(F)(F)F)cnc2N)CC1 [Compound (I), 3-amino-N-(3-(4-amino-4-methylpiperidin-1-yl)pyridin-2-yl)-6-(3-(trifluoromethyl)pyridin-2-yl)pyrazine-2-carboxamide]
- Tmax ([1]; individual patients, 400 mg BID with 200 mg run-in, C1 Day 22): 2 h and 1 h and 6 h and 0.5 h and 4 h
- mean Cmin at steady state, higher at 400 mg BID (with 200 mg run-in) than at 300 mg BID ([1]; steady state): ~40%
- mean steady state exposure (200 mg BID 7 days then 400 mg BID) vs 300 mg BID ([1]; steady state): higher mean steady state exposure
- Dose limiting toxicities (DLTs) ([2]; BID schedule): 2 of 17
- maximum tolerated dose ([2]; BID schedule): 400 mg BID
- Dose limiting toxicities (DLTs) ([2]; QD schedule): 7 of 38
- maximum tolerated dose ([2]; QD schedule): 500 mg QD
- most common DLT ([2]; human, in vivo): hypotension
- recommended dose for expansion (RDE) ([2]; human, in vivo): 300 mg BID
- confirmed partial responses (PRs) ([3]; 68 patients, QD and BID, as of September 2018, preliminary): six
- unconfirmed PRs ([3]; 68 patients, as of September 2018, preliminary): two
- confirmed PRs [3, 6]: Four
- patients with SD as best response (2 being unconfirmed PRs) [3, 6]: 18
- Hypotension, all grades, treatment-emergent, suspected to be study related ([4]; 300 mg BID, N = 26): 1 (3.8) n (%)
- Hypotension, grade 3/4, treatment-emergent, suspected to be study related ([4]; 300 mg BID, N = 26): 0 n (%)
- Hypotension, all grades [4, 7]: 1 (3.8) n (%)
- Hypotension, grade 3/4 [4, 7]: 0 n (%)
- Hypotension, all grades, treatment-emergent, suspected to be study related [4, 8]: 2 (6.7) n (%)
- Hypotension, grade 3/4, treatment-emergent, suspected to be study related [4, 8]: 0 n (%)
- Hypotension, all grades [4, 9]: 4 (13.3) n (%)
- Hypotension, grade 3/4 [4, 9]: 0 n (%)
- Hypotension, all grades, treatment-emergent, suspected to be study related ([4]; All Patients, N = 56): 3 (5.4) n (%)
- Hypotension, grade 3/4, treatment-emergent, suspected to be study related ([4]; All Patients, N = 56): 0 n (%)
- Hypotension, all grades [4, 10]: 5 (8.9) n (%)
- Hypotension, grade 3/4 [4, 10]: 0 n (%)
- frequency of hypotension at 400 mg BID with 200 mg run-in vs 400 mg BID alone ([4]; in vivo): less frequently
- Hypotension, all grades [5, 11]: 3 (16.7)
- Hypotension, grade >3 [5, 11]: 0
- Hypotension, all grades [5, 12]: 4 (66.7)
- Hypotension, grade >3 [5, 12]: 1 (16.7)
- Hypotension, all grades [5, 13]: 7 (23.3)
- Hypotension, grade >3 [5, 13]: 1 (3.3)
